In the NIST ThermoML archive (doi:10.1021/je060271a):
Where “and” joins values, the source holds several entries; their conditions need not be identical. Equal entries are not always repeated.

Conditions: 283.15 K, Liquid, Vibrating tube method

CCCCCC(=O)OCC(COC(=O)CCCCC)(COC(=O)CCCCC)COC(=O)CCCCC [pentaerythritol tetrahexanoate]
Conditions	mass density
6771 kPa	1008.1 kg/m3
6771.2 kPa	1008 kg/m3
6771.4 kPa	1008.1 kg/m3 and 1008 kg/m3
6771.6 kPa	1008.1 kg/m3
6771.7 kPa	1008.1 kg/m3
6771.9 kPa	1008 kg/m3
6772.1 kPa	1008.1 kg/m3
6772.3 kPa	1008.1 kg/m3
6772.4 kPa	1008 kg/m3 and 1008.1 kg/m3 and 1008.2 kg/m3
6772.6 kPa	1008.1 kg/m3 and 1008 kg/m3
6772.8 kPa	1008.1 kg/m3 and 1007.9 kg/m3
6772.9 kPa	1008.1 kg/m3
6773.1 kPa	1008 kg/m3 and 1008.2 kg/m3
6773.3 kPa	1008 kg/m3 and 1008.2 kg/m3
6773.5 kPa	1008 kg/m3 and 1008.1 kg/m3
6773.6 kPa	1008.1 kg/m3 and 1008.2 kg/m3 and 1008 kg/m3
6773.7 kPa	1008 kg/m3
6773.8 kPa	1008.1 kg/m3 and 1008 kg/m3
6774.1 kPa	1008.1 kg/m3
6774.2 kPa	1008.1 kg/m3
6774.3 kPa	1008.1 kg/m3
6774.5 kPa	1008.2 kg/m3 and 1008 kg/m3 and 1008.1 kg/m3
6774.7 kPa	1008.1 kg/m3 and 1008.2 kg/m3 and 1008 kg/m3
6774.8 kPa	1007.9 kg/m3 and 1008.1 kg/m3 and 1008 kg/m3
6775 kPa	1008.1 kg/m3 and 1007.9 kg/m3
6775.1 kPa	1008.2 kg/m3 and 1008.1 kg/m3
6775.2 kPa	1008.1 kg/m3 and 1008.2 kg/m3
6775.4 kPa	1008.2 kg/m3 and 1008 kg/m3
6776.1 kPa	1008.1 kg/m3
6776.2 kPa	1008.1 kg/m3
6776.6 kPa	1008.2 kg/m3 and 1008.1 kg/m3
6776.8 kPa	1008.1 kg/m3 and 1008.2 kg/m3 and 1008 kg/m3
6776.9 kPa	1008.2 kg/m3 and 1008.1 kg/m3
6777.1 kPa	1008.1 kg/m3
6777.3 kPa	1008.1 kg/m3
6777.5 kPa	1008.1 kg/m3 and 1008 kg/m3
6777.6 kPa	1008.1 kg/m3 and 1008 kg/m3
6777.8 kPa	1008.1 kg/m3 and 1008.2 kg/m3 and 1008 kg/m3
6778 kPa	1008.2 kg/m3
6778.1 kPa	1008 kg/m3 and 1008.1 kg/m3 and 1008.2 kg/m3
6778.3 kPa	1008.1 kg/m3 and 1008.2 kg/m3
6778.5 kPa	1008.1 kg/m3 and 1008 kg/m3 and 1007.9 kg/m3
6778.7 kPa	1008 kg/m3 and 1008.1 kg/m3
6779 kPa	1008.1 kg/m3
6779.2 kPa	1008 kg/m3 and 1008.1 kg/m3
6779.3 kPa	1008.2 kg/m3
6779.5 kPa	1008 kg/m3 and 1008.1 kg/m3
6779.7 kPa	1008.1 kg/m3 and 1008.2 kg/m3
6779.8 kPa	1008.2 kg/m3
6779.9 kPa	1008 kg/m3 and 1008.1 kg/m3
6780 kPa	1008.1 kg/m3 [middle of 4 runs]
6780.2 kPa	1008.1 kg/m3 and 1008 kg/m3
6780.3 kPa	1008 kg/m3
6780.4 kPa	1008 kg/m3 and 1008.2 kg/m3 and 1008.1 kg/m3
6780.5 kPa	1008.1 kg/m3 and 1008 kg/m3
6780.6 kPa	1008.1 kg/m3
6780.7 kPa	1008 kg/m3 and 1008.2 kg/m3 and 1008.1 kg/m3
6780.8 kPa	1008.2 kg/m3 and 1008.1 kg/m3
6780.9 kPa	1008.1 kg/m3
6781 kPa	1008.1 kg/m3 and 1008 kg/m3 and 1008.2 kg/m3
6781.1 kPa	1008.1 kg/m3
6781.2 kPa	1008.1 kg/m3
6781.3 kPa	1008.1 kg/m3
6781.4 kPa	1008.1 kg/m3
6781.5 kPa	1008.1 kg/m3
6781.7 kPa	1007.9 kg/m3
6781.9 kPa	1008.1 kg/m3 and 1008 kg/m3
6782 kPa	1008.2 kg/m3
6782.2 kPa	1008.2 kg/m3 and 1008.1 kg/m3 and 1008 kg/m3
6782.4 kPa	1007.9 kg/m3 and 1008.2 kg/m3 and 1008.1 kg/m3
6782.6 kPa	1008.1 kg/m3 and 1008 kg/m3
6782.7 kPa	1008.2 kg/m3 and 1008.1 kg/m3 and 1008 kg/m3
6782.9 kPa	1008.1 kg/m3 and 1008 kg/m3
6783.1 kPa	1007.9 kg/m3 and 1008.1 kg/m3 and 1008 kg/m3
6783.2 kPa	1008 kg/m3
6783.3 kPa	1008.1 kg/m3 and 1008 kg/m3
6783.4 kPa	1008.1 kg/m3 [middle of 4 runs]
6783.6 kPa	1008 kg/m3 and 1008.1 kg/m3 and 1008.2 kg/m3
6783.8 kPa	1008.1 kg/m3
6784.1 kPa	1008 kg/m3
6784.3 kPa	1008.1 kg/m3
6784.5 kPa	1008 kg/m3
6784.6 kPa	1008.1 kg/m3
6784.7 kPa	1008 kg/m3 and 1008.1 kg/m3
6784.8 kPa	1008.1 kg/m3
6785 kPa	1008.1 kg/m3 and 1008.2 kg/m3
6785.1 kPa	1008.1 kg/m3 and 1008 kg/m3
6785.2 kPa	1008.2 kg/m3 and 1008.1 kg/m3
6785.3 kPa	1008.1 kg/m3 and 1008 kg/m3
6785.5 kPa	1007.9 kg/m3
6785.7 kPa	1008 kg/m3 and 1008.2 kg/m3 and 1008.1 kg/m3
6785.8 kPa	1008.1 kg/m3 and 1008 kg/m3 and 1008.2 kg/m3
6786 kPa	1008.1 kg/m3 and 1008 kg/m3
6786.2 kPa	1008.1 kg/m3 and 1008.2 kg/m3
6786.3 kPa	1008.1 kg/m3
6786.4 kPa	1008.1 kg/m3
6786.5 kPa	1008 kg/m3 and 1008.2 kg/m3 and 1008.1 kg/m3
6786.7 kPa	1008 kg/m3 and 1008.1 kg/m3
6786.9 kPa	1008 kg/m3 and 1008.1 kg/m3
6787 kPa	1008 kg/m3
6787.2 kPa	1008.1 kg/m3 and 1008 kg/m3
6787.4 kPa	1008 kg/m3 and 1008.2 kg/m3 and 1008.1 kg/m3
6787.7 kPa	1008.1 kg/m3
6787.9 kPa	1008 kg/m3 and 1008.1 kg/m3
6788.1 kPa	1008.2 kg/m3 and 1008.1 kg/m3
6788.2 kPa	1008 kg/m3 and 1008.1 kg/m3
6788.4 kPa	1008.1 kg/m3
6789.1 kPa	1008.2 kg/m3
6789.2 kPa	1008 kg/m3
6789.4 kPa	1008 kg/m3
6789.5 kPa	1008 kg/m3 and 1008.2 kg/m3 and 1008.1 kg/m3
6789.6 kPa	1008.2 kg/m3 and 1008.1 kg/m3 and 1008 kg/m3
6789.7 kPa	1008.1 kg/m3 and 1008 kg/m3
6789.8 kPa	1008 kg/m3 and 1008.1 kg/m3 and 1008.2 kg/m3
6789.9 kPa	1008 kg/m3
6795.1 kPa	1008.1 kg/m3
6804.6 kPa	1008.1 kg/m3
6816.7 kPa	1008 kg/m3
6826.4 kPa	1008 kg/m3
6835.7 kPa	1008.2 kg/m3
6845.5 kPa	1008.1 kg/m3
6856.1 kPa	1008.3 kg/m3
6867.3 kPa	1008.1 kg/m3
6879.6 kPa	1008.1 kg/m3
6889.1 kPa	1008.1 kg/m3
6899.3 kPa	1008.1 kg/m3
6909.5 kPa	1008.1 kg/m3
6921.6 kPa	1008.2 kg/m3
6931.7 kPa	1008.2 kg/m3
6941.9 kPa	1008.1 kg/m3
6954.2 kPa	1008.3 kg/m3
6964.7 kPa	1008.2 kg/m3
6975.4 kPa	1008.1 kg/m3
6988.1 kPa	1008.1 kg/m3
6998.9 kPa	1008.2 kg/m3
7009.8 kPa	1008.1 kg/m3
7020.4 kPa	1008.2 kg/m3
7033.3 kPa	1008.2 kg/m3
7043.8 kPa	1008.3 kg/m3
7054.9 kPa	1008.2 kg/m3
7065.4 kPa	1008.3 kg/m3
7078.4 kPa	1008.2 kg/m3
7089.3 kPa	1008.3 kg/m3
7100.3 kPa	1008.3 kg/m3
7113.3 kPa	1008.3 kg/m3
